For data set [1] the following is noted: cited from earlier work; for behaviour in an aqueous solution: GB2191695.
Data set [2] concerns micro-organisms as shown in the tables 10A-F. Description: Efficacy of antimicrobial preservation, overall judgement. Type of data set: cell-based. As to conditions: Ph. Eur. 9.0, section 5.1.3; in oral levothyroxine solution. From the text: Preservation Efficacy Tests […] As comparison, sample 1 of U.S. Pat. No. 9,345,722 has been prepared, in accordance with example 6 of U.S. Pat. No. 9,345,722. The test consists of challenging the sample solution with a prescribed inoculum of suitable micro-organisms as shown in the tables 10A-F, storing the inoculated solution at ambient temperature, avoiding sunlight, withdrawing samples from the container at specified intervals of time and counting the micro-organisms in the samples so removed. The preservative properties of the solution are adequate if, in the conditions of the test, there is a significant fall or no increase, as appropriate, in the number of micro-organisms in the inoculated solution after 14 and 28 days. ATCC stands for the deposit number of the micro-organism at the American Type Culture Collection ATCC.

Each structure is given as a SMILES string. Where two headings read alike, the source gives them in different places.

On to `N[C@@H](Cc1cc(I)c(Oc2cc(I)c(O)c(I)c2)c(I)c1)C(=O)[O-].[Na+]` [Levothyroxine sodium, sodium (2S)-2-amino-3-[4-(4-hydroxy-3,5-diiodophenoxy)-3,5-diiodophenyl]-propanoate], for which, in data set [1] (96% ethanol), the “solubility in 96% ethanol” value is listed as “slightly soluble”. Also, the solubility in water entry in data set [1] (water) is reported as “very slightly soluble”.

As to `O=C([O-])c1ccccc1.[K+]` [potassium benzoate], in data set [2], the “efficacy of antimicrobial preservation in words” value (“efficacy” for short) is recorded as “results similar to that of sodium benzoate”.

As for `C/C=C/C=C/C(=O)[O-].[K+]` [potassium sorbate], the “efficacy” value in data set [2] was “results similar to that of sorbic acid”.

As for `N[C@@H](Cc1cc(I)c(Oc2cc(I)c(O)c(I)c2)c(I)c1)C(=O)O` [levothyroxine, 3,5,3′,5′-tetraiodo-L-thyronine], the “behaviour in an aqueous solution” value in data set [1] (pH 11-12) was “dissolves”; in data set [1] (pH lowered further to pH 5-6) it was “formation of a precipitate”; in data set [1] (pH lowered to pH 7), “white pale suspension”.

As for `C/C=C/C=C/C(=O)O` [sorbic acid], the “efficacy” value in data set [2] is reported as “comply with the relevant criteria”.

On to `COC(=O)c1ccc(O)cc1.[Na]` [sodium methyl paraben, sodium methyl parahydroxybenzoate], for which, in data set [2], the “efficacy” value is listed as “less efficient preservative”.

Regarding `O=C(O)c1ccccc1` [benzoic acid], the “efficacy” value in data set [2] is reported as “comply with the relevant criteria”.

As to `O=C([O-])c1ccccc1.[Na+]` [sodium benzoate], the “efficacy” value in data set [2] was “comply with the relevant criteria”.

In the case of `C/C=C/C=C/C(=O)[O-].[Na+]` [sodium sorbate], in data set [2], the “efficacy” value is recorded as “results similar to that of sorbic acid”.
